Data published in the supplement of paper PMC11061612.

Experiments:
Capivasertib = compound: C1CN(CCC1(C(=O)N[C@@H](CCO)C2=CC=C(C=C2)Cl)N)C3=NC=NC4=C3C=CN4 [Capivasertib]; conditions: max 10 µM
Procedure, shortened: (§1)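 Cancer cell lines were seeded in 1536-well plates in 7.5 μl DMEM/F12 or RPMI with 10% FBS, held 24 hours at 37°C and 5% CO2, then dosed for 72 hours (final DMSO typically 0.2%). Viability was read by CellTiter-Glo 2.0 luminescence and scaled between blank-well and DMSO-well means. The single-agent IC50 comes from dose responses fitted to a two-parameter logistic curve with a non-linear mixed effects model.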

AZD1775 = compound: C=CCn1c(=O)c2cnc(Nc3ccc(N4CCN(C)CC4)cc3)nc2n1-c1cccc(C(C)(C)O)n1 [AZD1775]; conditions: max 3 µM
Procedure, shortened: as §1

Trametinib = compound: CC(=O)Nc1cccc(-n2c(=O)n(C3CC3)c(=O)c3c(Nc4ccc(I)cc4F)n(C)c(=O)c(C)c32)c1 [Trametinib]; conditions: max 1 µM
Procedure, shortened: as §1

Palbociclib = compound: CC(=O)c1c(C)c2cnc(Nc3ccc(N4CCNCC4)cn3)nc2n(C2CCCC2)c1=O [Palbociclib]; conditions: max 10 µM
Procedure, shortened: as §1

AZD1390 = compound: CC(C)n1c(=O)n(C)c2cnc3cc(F)c(-c4ccc(OCCCN5CCCCC5)nc4)cc3c21 [AZD1390]; conditions: max 0.3 µM
Procedure, shortened: as §1

Venetoclax = compound: CC1(C)CCC(CN2CCN(c3ccc(C(=O)NS(=O)(=O)c4ccc(NCC5CCOCC5)c([N+](=O)[O-])c4)c(Oc4cnc5[nH]ccc5c4)c3)CC2)=C(c2ccc(Cl)cc2)C1 [Venetoclax]; conditions: max 1 µM
Procedure, shortened: as §1

Dasatinib = compound: CC1=C(C(=CC=C1)Cl)NC(=O)C2=CN=C(S2)NC3=CC(=NC(=N3)C)N4CCN(CC4)CCO [Dasatinib]; conditions: max 2 µM
Procedure, shortened: as §1

SG3199 = compound: CC1=CN2[C@@H](C1)C=NC3=CC(=C(C=C3C2=O)OC)OCCCCCOC4=C(C=C5C(=C4)N=C[C@@H]6CC(=CN6C5=O)C)OC [SG3199]; conditions: max 0.001 µM
Procedure, shortened: as §1

AZD2811 = compound: CCN(CCO)CCCOc1ccc2c(Nc3cc(CC(=O)Nc4cccc(F)c4)[nH]n3)ncnc2c1 [AZD2811]; conditions: max 1 µM
Procedure, shortened: as §1

SN-38 = compound: CCc1c2c(nc3ccc(O)cc13)-c1cc3c(c(=O)n1C2)COC(=O)[C@]3(O)CC [SN-38]; conditions: max 0.3 µM
Procedure, shortened: as §1

AZD0156 = compound: CN(C)CCCOc1ccc(-c2ccc3ncc4c(c3c2)n(C2CCOCC2)c(=O)n4C)cn1 [AZD0156]; conditions: max 3 µM
Procedure, shortened: as §1

AZD4320 = compound: CN(CC[C@H](CSC1=CC=CC=C1)NC2=C(C=C(C=C2)S(=O)(=O)NC(=O)C3=CC=C(C=C3)N4CCC(CC4)[C@H](C5=CC=CC=C5C6=CC=C(C=C6)Cl)O)S(=O)(=O)C(F)(F)F)CCO [AZD4320]; conditions: max 1 µM
Procedure, shortened: as §1

Alisertib = compound: COc1cc(Nc2ncc3c(n2)-c2ccc(Cl)cc2C(c2c(F)cccc2OC)=NC3)ccc1C(=O)O [Alisertib]; conditions: max 10 µM
Procedure, shortened: as §1

Gefitinib = compound: COc1cc2ncnc(Nc3ccc(F)c(Cl)c3)c2cc1OCCCN1CCOCC1 [Gefitinib]; conditions: max 10 µM
Procedure, shortened: as §1

Prexasertib = compound: COc1cccc(OCCCN)c1-c1cc(Nc2cnc(C#N)cn2)n[nH]1 [Prexasertib]; conditions: max 1 µM
Procedure, shortened: as §1

Doxorubicin = compound: COc1cccc2c1C(=O)c1c(O)c3c(c(O)c1C2=O)C[C@@](O)(C(=O)CO)C[C@@H]3O[C@H]1C[C@H](N)[C@H](O)[C@H](C)O1 [Doxorubicin]; conditions: max 1 µM
Procedure, shortened: as §1

AZD5153 = compound: COc1nnc2ccc(N3CCC(c4ccc(OCCN5CCN(C)C(=O)[C@H]5C)cc4)CC3)nn12 [AZD5153]; conditions: max 1 µM
Procedure, shortened: as §1

Lapatinib = compound: CS(=O)(=O)CCNCc1ccc(-c2ccc3ncnc(Nc4ccc(OCc5cccc(F)c5)c(Cl)c4)c3c2)o1 [Lapatinib]; conditions: max 10 µM
Procedure, shortened: as §1

AZD8186 = compound: C[C@@H](Nc1cc(F)cc(F)c1)c1cc(C(=O)N(C)C)cc2c(=O)cc(N3CCOCC3)oc12 [AZD8186]; conditions: max 3 µM
Procedure, shortened: as §1

Crizotinib = compound: C[C@@H](Oc1cc(-c2cnn(C3CCNCC3)c2)cnc1N)c1c(Cl)ccc(F)c1Cl [Crizotinib]; conditions: max 10 µM
Procedure, shortened: as §1

Savolitinib = compound: C[C@@H](c1ccc2nccn2c1)n1nnc2ncc(-c3cnn(C)c3)nc21 [Savolitinib]; conditions: max 1 µM
Procedure, shortened: as §1

AZD6738 = compound: C[C@@H]1COCCN1C2=NC(=NC(=C2)C3(CC3)[S@](=N)(=O)C)C4=C5C=CNC5=NC=C4 [AZD6738]; conditions: max 10 µM
Procedure, shortened: as §1

AZD5991 = compound: Cc1c2c(nn1C)CSCc1cc(n(C)n1)CSc1cc(c3ccccc3c1)OCCCc1c(C(=O)O)n(C)c3c-2c(Cl)ccc13 [AZD5991]; conditions: max 1 µM
Procedure, shortened: as §1

AZD7648 = compound: Cc1cc2ncnn2cc1Nc1ncc2c(n1)n(C1CCOCC1)c(=O)n2C [AZD7648]; conditions: max 10 µM
Procedure, shortened: as §1

Taselisib = compound: Cc1nc(-c2cn3c(n2)-c2ccc(-c4cnn(C(C)(C)C(N)=O)c4)cc2OCC3)n(C(C)C)n1 [Taselisib]; conditions: max 10 µM
Procedure, shortened: as §1

Selumetinib = compound: Cn1cnc2c(F)c(Nc3ccc(Br)cc3Cl)c(C(=O)NOCCO)cc21 [Selumetinib]; conditions: max 10 µM
Procedure, shortened: as §1

Olaparib = compound: O=C(c1cc(Cc2n[nH]c(=O)c3ccccc23)ccc1F)N1CCN(C(=O)C2CC2)CC1 [Olaparib]; conditions: max 10 µM
Procedure, shortened: as §1

Cell Line	IC50, cell viability 72 h (Capivasertib) [nM]	IC50, cell viability 72 h (AZD1775) [nM]	IC50, cell viability 72 h (Trametinib) [nM]	IC50, cell viability 72 h (Palbociclib) [nM]	IC50, cell viability 72 h (AZD1390) [nM]	IC50, cell viability 72 h (Venetoclax) [nM]	IC50, cell viability 72 h (Dasatinib) [nM]	IC50, cell viability 72 h (SG3199) [nM]	IC50, cell viability 72 h (AZD2811) [nM]	IC50, cell viability 72 h (SN-38) [nM]	IC50, cell viability 72 h (AZD0156) [nM]	IC50, cell viability 72 h (AZD4320) [nM]	IC50, cell viability 72 h (Alisertib) [nM]	IC50, cell viability 72 h (Gefitinib) [nM]	IC50, cell viability 72 h (Prexasertib) [nM]	IC50, cell viability 72 h (Doxorubicin) [nM]	IC50, cell viability 72 h (AZD5153) [nM]	IC50, cell viability 72 h (Lapatinib) [nM]	IC50, cell viability 72 h (AZD8186) [nM]	IC50, cell viability 72 h (Crizotinib) [nM]	IC50, cell viability 72 h (Savolitinib) [nM]	IC50, cell viability 72 h (AZD6738) [nM]	IC50, cell viability 72 h (AZD5991) [nM]	IC50, cell viability 72 h (AZD7648) [nM]	IC50, cell viability 72 h (Taselisib) [nM]	IC50, cell viability 72 h (Selumetinib) [nM]	IC50, cell viability 72 h (Olaparib) [nM]
ALL-SIL (T-Lymphoblastic Leukemia)	> 10000	449	> 1000	> 10000	> 300	257	< 2	> 1	4.94	1.52	> 3000	9.78	44.7	> 10000	5.65	146	237	> 10000	> 3000	244	> 1000	1430	141	> 10000	6050	> 10000	> 10000
CADO-ES1 (Ewing's Sarcoma)	> 10000	2290	> 1000	> 10000	> 300	60.9	> 2000	> 1	> 1000	2.06	> 3000	243	135	> 10000	50	827	> 1000	> 10000	> 3000	> 10000	> 1000	2890	207	> 10000	> 10000	> 10000	> 10000
EJM (Plasma Cell Myeloma)	> 10000	202	> 1000	> 10000	> 300	> 1000	> 2000	> 1	> 1000	25.9	> 3000	> 1000	> 10000	> 10000	8.91	837	414	> 10000	> 3000	6790	> 1000	1650	332	> 10000	> 10000	> 10000	> 10000
EW-1 (Ewing's Sarcoma)	> 10000	294	> 1000	5210	> 300	> 1000	> 2000	> 1	> 1000	4.54	> 3000	586	4900	> 10000	10.9	317	357	> 10000	> 3000	2040	> 1000	2480	> 1000	> 10000	640	> 10000	6670
G-401 (Other Solid Carcinomas)	2710	1410	84.2	833	> 300	> 1000	> 2000	> 1	> 1000	58.9	> 3000	> 1000	1000	> 10000	239	111	48.3	> 10000	> 3000	5410	> 1000	> 10000	> 1000	> 10000	336	> 10000	> 10000
HCC2998 (Colorectal Carcinoma)	> 10000	981	14.1	> 10000	> 300	> 1000	> 2000	> 1	> 1000	144	> 3000	485	> 10000	> 10000	18.8	389	314	> 10000	> 3000	> 10000	> 1000	3120	259	> 10000	5390	382	> 10000
Hey (Ovarian Carcinoma)	> 10000	1200	59.8	> 10000	> 300	> 1000	450	> 1	> 1000	32	> 3000	> 1000	1240	> 10000	128	398	476	> 10000	> 3000	> 10000	> 1000	6180	> 1000	> 10000	7990	3040	> 10000
